From patent US10350204B2, “Methods for treating cognitive deficits associated with fragile X syndrome” (Wisconsin Alumni Research Foundation, priority 2015, dated 2019) come the findings set out here.

Common to all, as to type: cell-based, mouse
Assay [1] relates to Fmr1 KO and wildtype NPCs. The assay is described as follows: BrdU proliferation assay of cultured NPCs.
Procedure: We used only early passage cells (between passage 4 and 10) and only the same passage numbers of wild type (WT) and Fmr1 KO cells. For each experiment, triplicate wells of cells were analyzed, and results were averaged as one data point (n=1). At least 3 independent experiments (n=3) were performed and used for statistical analyses for each analysis. To study cell proliferation, we dissociated neural stem cells with trypsin and plated them on poly-L-ornithine and laminin-coated 24 well plate (Scientific fisher, 87721) at a density of 100,000 cells per well in proliferation medium. At 20 h post-plating, 5 μM 5-bromo-2.′-deoxyuridine (BrdU, Sigma-Aldrich) was added into the culture medium for 6 h. NPCs were then washed with PBS and fixed with 4% paraformaldehyde for 30 min at room temperature, followed by immunohistochemical analysis. To detect BrdU incorporation, fixed cells were pretreated with 1M HCl for 30 min at 37° C., and then washed with borate buffer, pH 8.5, for 30 min. We then followed our standard immunohistochemistry protocol^10. BrdU incorporation assay was determined using an Operetta high content imaging system (PerkinElmer, Inc) and Harmony quantification software (PerkinElmer, Inc). The percentage of proliferating cells was defined as the number of BrdU-labeled cells divided by total DAPI-positive cells.
For proliferation assay in vitro, 1 μM MK2206 (Selleckchem, S1078) (AKT phosphorylation inhibitor), or 2 μM Nutlin-3 (Nt3, Selleckchem, 51061) (Mdm2 inhibitor), or 1 μM RG7112 (Selleckchem, S7030) (Mdm2 inhibitor) or YH239-EE (Selleckchem 57489) (4 μM) (Mdm2 inhibitor) was added to proliferating NPCs at 6 hours post-plating. Cells were then pulse labeled 18 hours later with 5 μM 5-bromo-2′-deoxyuridine (BrdU, Sigma-Aldrich, B5002) and incubated for 6 hours in the presence of inhibitor, followed by fixation, staining, and quantification.
The subject of assay [2] is Fmr1 KO and wildtype NPCs. Description: Differentiation assay of cultured NPCs (Tuj1 neurons, GFAP astrocytes). Conditions: 4 days.
Procedure: Proliferation and differentiation of aNPCs were analyzed using our published methods (Guo et al., Nature Med. (2011); Guo et al., Neuron 70, 924-938 (2011); Luo et al., PLoS Genet 6 (2010); Liu et al., Cell Stem Cell 6 (2010)). We used only early passage cells (between passage 4 and 10) and only the same passage numbers of wild type (WT) and Fmr1 KO cells. For each experiment, triplicate wells of cells were analyzed, and results were averaged as one data point (n=1). At least 3 independent experiments (n=3) were performed and used for statistical analyses for each analysis. […] For the differentiation assay, at 24 h post-plating, cells were changed into differentiation medium, Neurobasal A, containing 5 μM forskolin (Sigma-Aldrich, F-6886) and 1 μM retinoic acid (Sigma-Aldrich, R-2625) for 4 d, followed by fixation with 4% paraformaldehyde for 30 min, and then washed with Dulbecco's Phosphate Buffered Saline (DPBS), pH 7.4 for 30 min. Immunocytochemistry staining was carried out as described (Guo et al., Nature Med. (2011); Guo et al., Neuron 70, 924-938 (2011); Luo et al., PLoS Genet 6 (2010); Liu et al., Cell Stem Cell 6 (2010)). Briefly, cells were preblocked using DPBS containing 5% normal goat serum (VECTOR, S-1000) and 0.1% Triton X-100 for 30 min, followed by overnight incubation with primary antibodies: mouse anti-Tuj1 (1:1000, Promega, G712A) and rabbit anti-S100β (1:1000, Dako, Z0334).
After washing with Dulbecco s Phosphate Buffered Saline (DPBS), cells were incubated with secondary antibodies that included goat anti-mouse 568 (1:1000, Invitrogen, A11031), goat anti-rabbit 488 (1:1000, Invitrogen, A11008) followed by counterstaining with the fluorescent nuclear dye 4′,6-diamidino-2′-phenylindole dihydrochloride (DAPI, Sigma-Aldrich, B2261). […] (VECTOR, H-1000), the numbers of Tuj1, GFAP-positive cells were quantified using an Olympus BX51 microscope equipped with a MicroFire digital camera (Optronics) and a motorized stage using a 20× objective lens. The quantification was carried out using an unbiased stereology method with assistance from StereoInvestigator software (MBF Biosciences). The percentage of differentiated cells was calculated as the number of Tuj1- or GFAP-labeled cells divided by the total number of cells stained with DAPI.
The test system of assay [3] is Fmr1 KO and wildtype NPCs. Description: Western blot analyses of p-AKT, p-MDM2, MDM2 and P53 in NPCs. Here is the method:
NPCs were isolated from the dentate gyms of 8 to 10-week-old male Fmr1 KO mice and wild-type (wildtype) littermate controls based on our published methods (12, 64). Independently isolated cells serve as biological replicates. Proliferation and differentiation of NPCs was analyzed as described (11, 12, 61). We used only early passage cells (between passage 4 and 10) and only the same passage numbers of wildtype and Fmr1 KO cells. For each experiment, triplicate wells of cells were analyzed, and results were averaged as one data point (n=1). At least 3 independent biological replicates were used (n=3) for statistical analyses.
Protein samples were separated on SDS-PAGE gels (Bio-Rad), transferred to PVDF membranes (Millipore), and incubated with primary antibodies. After incubation with fluorescence-labeled secondary antibodies (Li—CoR), the membranes were imaged using Li—CoR and quantification was performed using ImageJ software. At least n=3 independent blots were used for statistical analysis.
For loading controls, membranes were probed with the mouse antibody against GAPDH.
(In general: Immunoblotting shows a protein as a band on a membrane.)

Assay [4] deals with Fmr1 KO and wildtype NPCs. The assay is described as above. Conditions: total AKT as loading control.
[5] abbreviates: Fmr1 KO NPCs, 1 μM MK2206, 2 μM Nutlin-3, 1 μM RG7112, 4 μM YH239-EE.
Where [6] appears, read: Fmr1 KO NPCs, 1 μM MK2206, 2 μM Nutlin-3, 1 μM RG7112.
Where [7] appears, read: wildtype NPCs, 1 μM MK2206, 2 μM Nutlin-3.

Consider `CCOc1cc(C(C)(C)C)ccc1C1=N[C@@](C)(c2ccc(Cl)cc2)[C@@](C)(c2ccc(Cl)cc2)N1C(=O)N1CCN(CCCS(C)(=O)=O)CC1` [RG7112], for which the “cell proliferation (BrdU+ cells)” value in assay [1] (setting [5]) is “rescued the cell proliferation phenotype”. Further, in assay [2] (setting [6]), the “astroglial differentiation (GFAP+)” value is given as “rescued astroglial differentiation phenotypes” and the “neuronal differentiation (Tuj1+)” value is reported as “rescued neuronal differentiation phenotypes”.
`CCOC(=O)c1[nH]c2cc(Cl)ccc2c1C(C(=O)NC(C)(C)C)N(C=O)Cc1ccc(Cl)cc1` (centres unmarked) [YH239-EE]: in assay [1] (setting [5]), the “cell proliferation (BrdU+ cells)” value was “rescued the cell proliferation phenotype”.
In the case of `NC1(c2ccc(-c3nc4ccn5c(=O)[nH]nc5c4cc3-c3ccccc3)cc2)CCC1` [MK-2206], the P53 expression result in assay [3] (Fmr1 KO NPCs) is “enhanced P53 expression”. Moreover, the “p-MDM2 (Ser166)” value in assay [3] (Fmr1 KO NPCs) and in assay [3] (wildtype NPCs) was “reduced p-MDM2” each time. The “total MDM2” value in assay [3] (Fmr1 KO NPCs) and in assay [3] (wildtype NPCs) was “without affecting total MDM2” in each case. Besides, the “cell proliferation (BrdU+ cells)” value in assay [1] (setting [5]) and in assay [1] (setting [7]) was “decreased cell proliferation” in each case. Also, the p-AKT result in assay [4] (Fmr1 KO NPCs) and in assay [4] (wildtype NPCs) was “reduced p-AKT” each time. Further, the “astroglial differentiation (GFAP+)” value in assay [2] (setting [6]) and in assay [2] (setting [7]) was “decreased” throughout. Besides, the “neuronal differentiation (Tuj1+)” value in assay [2] (setting [6]) and in assay [2] (setting [7]) was “increased neuronal differentiation” in each case.
